# Patent US12257247B2 (Monte Rosa Therapeutics AG, priority 2023, dated 2025)
# Where two headings read alike, the source gives them in different places.
# Molecular target: T1, VAV1 (Homo sapiens, UniProt P15498+Q96SW2)
# T1 construct: A heterozygous VAV1 C-terminal HiBiT knock-in pool was generated at Monte Rosa Therapeutics from a clonal Jurkat cell; endogenous in cells; host or cells: Jurkat clone stably expressing LgBiT, homozygous GSPT1-G575N; heterozygous VAV1-HiBiT knock-in pool
# Test: VAV1 degradation activity, VAV1-HiBiT knock-in Jurkat luminescence assay (Example A, Table 1)
# Format: cell-based
# Details: VAV1-HiBiT knock-in Jurkat cells; for Dmax: Jurkat
# Method in brief: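 Jurkat cells carrying VAV1-HiBiT knock-in, plated in RPMI/10% FBS with Endurazine live-cell substrate and pre-incubated ~16 h at 37° C. Compound dosed from 10 μM stock; luminescence read 6 and 24 h later. Response normalised to plate negative/positive controls, EC50 from 3-parameter logistic fit (hillslope 1).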
# [1] = luminescence read at 6 and 24 hours after compound addition, read-out: VAV1 Dmax %
# [2] = luminescence read at 6 and 24 hours after compound addition, read-out: VAV1 Dmax %, class
# [3] = luminescence read at 6 and 24 hours after compound addition, read-out: VAV1 DC50
# [4] = luminescence read at 6 and 24 hours after compound addition, read-out: VAV1 DC50 (nM), class
# [5] = luminescence read at 6 and 24 hours, read-out: VAV1 Dmax %
# [6] = luminescence read at 6 and 24 hours, read-out: VAV1 Dmax %, class
# [7] = luminescence read at 6 and 24 hours, read-out: VAV1 DC50
# [8] = luminescence read at 6 and 24 hours, read-out: VAV1 DC50 (nM), class
SMILES,Dmax [1],Dmax [2],DC50 [3],DC50 [4],Dmax [5],Dmax [6],DC50 [7],DC50 [8],VAV1 Dmax % (luminescence read at 6 and 24 hours)
"O=C1CCC(c2cccc(-c3ccc4c(c3)CC(=O)N4)c2Cl)C(=O)N1 (centres unmarked) [Compound 493, 3-(2-chloro-3-(2-oxoindolin-5-yl)phenyl)piperidine-2,6-dione]",75.7%,60 to 90%,502 nM,100 to 1000 nM,,,,,
"O=C1CCC(c2cccc(-c3ccc(N4CCOC4=O)cc3)c2Cl)C(=O)N1 (centres unmarked) [Compound 212, 3-(2-chloro-4′-(2-oxooxazolidin-3-yl)-[1,1′-biphenyl]-3-yl)piperidine-2,6-dione]",,,,,47.3%,< 60%,7990 nM,> 1000 nM,
"CNc1ccc(-c2cccc(C3CCC(=O)NC3=O)c2Cl)cc1 (centres unmarked) [Compound 134, 3-(2-chloro-4′-(methylamino)-[1,1′-biphenyl]-3-yl)piperidine-2,6-dione]",,,,,85.7%,> 90%,90.9 nM,,76.45%
"O=C1CCC(c2cccc(-c3ccc(N4CC5(COC5)CC4=O)cc3)c2Cl)C(=O)N1 (centres unmarked) [Compound 386, 3-(2-chloro-4′-(7-oxo-2-oxa-6-azaspiro[3.4]octan-6-yl)-[1,1′-biphenyl]-3-yl)piperidine-2,6-dione]",,,,,29.2%,< 60%,≥ 10000 nM,> 1000 nM,
"Cn1ccc(COc2ccc(-c3ccc(F)c(C4CCC(=O)NC4=O)c3Cl)cc2)n1 (centres unmarked) [Compound 144, 3-(2-chloro-4-fluoro-4′-((1-methyl-1H-pyrazol-3-yl)methoxy)-[1,1′-biphenyl]-3-yl)piperidine-2,6-dione]",,,,,65.3%,60 to 90%,248 nM,100 to 1000 nM,
"O=C1CCC(c2cccc(-c3ccc(N4CCCCC4=O)nc3)c2Cl)C(=O)N1 (centres unmarked) [Compound 450, 3-(2-chloro-3-(6-(2-oxopiperidin-1-yl)pyridin-3-yl)phenyl)piperidine-2,6-dione]",,,,,75.9%,60 to 90%,173 nM,100 to 1000 nM,
"O=C1CCC(c2cccc(-c3ccc4cc[nH]c4c3)c2Cl)C(=O)N1 (centres unmarked) [Compound 483, 3-(2-chloro-3-(1H-indol-6-yl)phenyl)piperidine-2,6-dione]",88.1%,60 to 90%,59.9 nM,≤ 100 nM,,,,,
"O=C1CCC(c2cccc(-c3ccc(CN4C(=O)CCCC45CC5)nc3)c2Cl)C(=O)N1 (centres unmarked) [Compound 404, 3-(2-chloro-3-(6-((5-oxo-4-azaspiro[2.5]octan-4-yl)methyl)pyridin-3-yl)phenyl)piperidine-2,6-dione]",,,,,65.5%,60 to 90%,262 nM,100 to 1000 nM,
"O=C1CCC(c2cccc(-c3cnc(-n4ccccc4=O)nc3)c2Cl)C(=O)N1 (centres unmarked) [Compound 474, 3-(2-chloro-3-(2-(2-oxopyridin-1(2H)-yl)pyrimidin-5-yl)phenyl)piperidine-2,6-dione]",,,,,35.3%,< 60%,≥ 10000 nM,> 1000 nM,
"CN1CC2(CCC(=O)N2c2ccc(-c3cccc(C4CCC(=O)NC4=O)c3Cl)cc2)C1 (centres unmarked) [Compound 371, 3-(2-chloro-4′-(2-methyl-6-oxo-2,5-diazaspiro[3.4]octan-5-yl)-[1,1′-biphenyl]-3-yl)piperidine-2,6-dione]",,,,,37.8%,< 60%,≥ 10000 nM,> 1000 nM,
"O=C1CCC(c2cccc(-c3ccc4c(c3)CC(=O)N4CC3CC3)c2Cl)C(=O)N1 (centres unmarked) [Compound 506, 3-(2-chloro-3-(1-(cyclopropylmethyl)-2-oxoindolin-5-yl)phenyl)piperidine-2,6-dione]",63.7%,60 to 90%,1770 nM,> 1000 nM,,,,,
"O=C1CCC(c2cccc(-c3ccc(N4CCOCC4)cc3)c2Cl)C(=O)N1 (centres unmarked) [Compound 338, 3-(2-chloro-4′-morpholino-[1,1′-biphenyl]-3-yl)piperidine-2,6-dione]",,,,,57.8%,< 60%,2170 nM,> 1000 nM,

# More lines, now with the values ahead:
Dmax [1],Dmax [2],DC50 [3],DC50 [4],Dmax [5],Dmax [6],DC50 [7],DC50 [8],VAV1 Dmax % (luminescence read at 6 and 24 hours),SMILES
,,,,98.2%,> 90%,3.26 nM,≤ 100 nM,,"CC1(C)CCCC(=O)N1c1ccc(-c2cccc(C3CCC(=O)NC3=O)c2Cl)cc1 (centres unmarked) [Compound 403, 3-(2-chloro-4′-(2,2-dimethyl-6-oxopiperidin-1-yl)-[1,1′-biphenyl]-3-yl)piperidine-2,6-dione]"
,,,,82.8%,60 to 90%,54.8 nM,≤ 100 nM,,O=C1CCC(c2cccc(-c3ccc(CN4CCc5ocnc5C4=O)cc3)c2Cl)C(=O)N1 (centres unmarked) [Compound 252]
,,,,88.7%,60 to 90%,65.6 nM,≤ 100 nM,,"O=C1CCC(c2cccc(-c3ccc(-n4ccccc4=O)nc3)c2Cl)C(=O)N1 (centres unmarked) [Compound 477, 3-(2-chloro-3-(2-oxo-2H-[1,2′-bipyridin]-5′-yl)phenyl)piperidine-2,6-dione]"
,,,,89.1%,60 to 90%,49.2 nM,≤ 100 nM,,O=C1CCC(c2cccc(-c3ccc(N4CC(C(F)(F)F)OCC4=O)cc3)c2Cl)C(=O)N1 (centres unmarked) [Compound 306]
,,,,97%,> 90%,6.45 nM,≤ 100 nM,,"O=C1CCC(c2cccc(-c3ccc(N4CCCN(CC(F)(F)F)C4=O)cc3)c2Cl)C(=O)N1 (centres unmarked) [Compound 449, 3-(2-chloro-4′-(2-oxo-3-(2,2,2-trifluoroethyl)tetrahydropyrimidin-1(2H)-yl)-[1,1′-biphenyl]-3-yl)piperidine-2,6-dione]"
,,,,98.2%,> 90%,2.46 nM,≤ 100 nM,,"CN1CC2(CCC2)N(c2ccc(-c3cccc(C4CCC(=O)NC4=O)c3Cl)cc2)C1=O (centres unmarked) [Compound 341, 3-(2-chloro-4′-(7-methyl-6-oxo-5,7-diazaspiro[3.4]octan-5-yl)-[1,1′-biphenyl]-3-yl)piperidine-2,6-dione]"
,,,,92%,> 90%,26 nM,≤ 100 nM,,"O=C1CCC(c2cccc(-c3ccc(Cn4ccccc4=O)cc3)c2Cl)C(=O)N1 (centres unmarked) [Compound 156, 3-(2-chloro-4′-((2-oxopyridin-1(2H)-yl)methyl)-[1,1′-biphenyl]-3-yl)piperidine-2,6-dione]"
,,,,96.2%,> 90%,10.1 nM,≤ 100 nM,,"O=C1CCC(c2cccc(-c3ccc(N4CCCCC4=O)c(F)c3)c2Cl)C(=O)N1 (centres unmarked) [Compound 461, 3-(2-chloro-3′-fluoro-4′-(2-oxopiperidin-1-yl)-[1,1′-biphenyl]-3-yl)piperidine-2,6-dione]"
,,,,98%,> 90%,5.59 nM,≤ 100 nM,,"O=C1CCC(c2cccc(-c3ccc(Cc4ccccn4)cc3)c2Cl)C(=O)N1 (centres unmarked) [Compound 169, 3-(2-chloro-4′-(pyridin-2-ylmethyl)-[1,1′-biphenyl]-3-yl)piperidine-2,6-dione]"
,,,,87.5%,60 to 90%,69.6 nM,≤ 100 nM,,"O=C1CCC(c2cccc(-c3cnc(N4C(=O)CCCC45CC5)c(F)c3)c2Cl)C(=O)N1 (centres unmarked) [Compound 362, 3-(2-chloro-3-(5-fluoro-6-(5-oxo-4-azaspiro[2.5]octan-4-yl)pyridin-3-yl)phenyl)piperidine-2,6-dione]"
,,,,98.2%,> 90%,2.78 nM,≤ 100 nM,,"O=C1CCC(c2cccc(-c3ccc(N4C(=O)CCC45CCC5)cc3)c2Cl)C(=O)N1 (centres unmarked) [Compound 457, 3-(2-chloro-4′-(6-oxo-5-azaspiro[3.4]octan-5-yl)-[1,1′-biphenyl]-3-yl)piperidine-2,6-dione]"
,,,,98.5%,> 90%,6.68 nM,≤ 100 nM,,"O=C1CCC(c2cccc(-c3ccc(-n4cccc(CC(F)(F)F)c4=O)cc3)c2Cl)C(=O)N1 (centres unmarked) [Compound 417, 3-(2-chloro-4′-(2-oxo-3-(2,2,2-trifluoroethyl)pyridin-1(2H)-yl)-[1,1′-biphenyl]-3-yl)piperidine-2,6-dione]"
,,,,90.7%,> 90%,43.1 nM,≤ 100 nM,,"O=C1CCC(c2cccc(-c3ccc(-n4cccnc4=O)c(F)c3)c2Cl)C(=O)N1 (centres unmarked) [Compound 419, 3-(2-chloro-3′-fluoro-4′-(2-oxopyrimidin-1(2H)-yl)-[1,1′-biphenyl]-3-yl)piperidine-2,6-dione]"
,,,,90.2%,> 90%,32.6 nM,≤ 100 nM,,O=C1CCC(c2cccc(-c3ccc(CN4C(=O)CCCC4C(F)(F)F)cc3)c2Cl)C(=O)N1 (centres unmarked) [Compound 262]
,,,,89.6%,60 to 90%,39.4 nM,≤ 100 nM,,O=C1CCC(c2cccc(-c3ccc(N4CCn5ccnc5C4=O)cc3)c2Cl)C(=O)N1 (centres unmarked) [Compound 309]
,,,,90.5%,> 90%,23 nM,≤ 100 nM,,O=C1CCC(c2cccc(-c3ccc(N4CCC5(COC5)CC4=O)cc3)c2Cl)C(=O)N1 (centres unmarked) [Compound 310]
,,,,77.4%,60 to 90%,81.8 nM,≤ 100 nM,,"O=C1CCC(c2cccc(-c3ccc(NC(=O)C4CCOC4)cc3)c2Cl)C(=O)N1 (centres unmarked) [Compound 227, N-[4-[2-chloro-3-(2,6-dioxo-3-piperidyl)phenyl]phenyl]tetrahydrofuran-3-carboxamide]"
